# Laboratory results: PMC10331583, “Control of fibrosis with enhanced safety via asymmetric inhibition of prolyl‐tRNA synthetase 1” (EMBO Molecular Medicine, 2023)
# Several values for one entry are separate records, joined by “and”; a condition that tells them apart may be missing. Equal values may be shown once. Read-outs that look alike come from different tables or passages of the source.
# Key:
# WI‐26 VA4 cells = assay: Collagen ELISA (secreted pro‐collagen I); conditions: for IC50 / activity at 0.01 µM / activity at 300 µM / activity at 0.03 µM / activity at 0.1 µM / activity at 0.3 µM / activity at 1 µM / activity at 3 µM / activity at 10 µM / activity at 30 µM / activity at 100 µM: Homo sapiens
# [1] = tested on: TNT Quick Coupled Transcription/Translation System (luciferase synthesis); assay type: biochemical
structure (smiles),measurement,setting,value
O[C@H]1CCCN[C@@H]1CCCn1cnc2c(Cl)c(Cl)ccc21 [DWN12088],"Collagen, % of control (single replicates per experiment)","WI‐26 VA4 cells; 10 nM, 0.01 µM",101.76 % of control
same,"Collagen, % of control (single replicates per experiment)","WI‐26 VA4 cells; 30 nM, 0.03 µM",120.03 % of control and 114.52 % of control and 91.73 % of control and 89.16 % of control and 97.48 % of control and 99.13 % of control and 133.18 % of control and 134.10 % of control
same,"Collagen, % of control (single replicates per experiment)","WI‐26 VA4 cells; 100 nM, 0.1 µM",111.05 % of control and 113.92 % of control and 88.23 % of control and 93.03 % of control and 102.46 % of control and 102.99 % of control and 133.45 % of control and 119.32 % of control
same,"Collagen, % of control (single replicates per experiment)","WI‐26 VA4 cells; 300 nM, 0.3 µM",97.76 % of control and 92.78 % of control and 92.20 % of control and 87.32 % of control and 95.43 % of control and 105.10 % of control and 105.64 % of control and 109.03 % of control
same,"Collagen, % of control (single replicates per experiment)","WI‐26 VA4 cells; 1000 nM, 1 µM",75.49 % of control and 75.29 % of control and 77.13 % of control and 68.65 % of control and 66.58 % of control and 66.40 % of control and 103.27 % of control and 103.19 % of control
same,"Collagen, % of control (single replicates per experiment)","WI‐26 VA4 cells; 3000 nM, 3 µM",24.90 % of control and 21.92 % of control
same,TI (CC50/IC50 for collagen level),WI‐26 VA4 cells; Fig 1C,10.29
same,CC50/collagen IC50,WI‐26 VA4 cells; Fig 5E,10.07
same,IC50,"WI‐26 VA4 cells; WI26VA4, 72 h, read-out: IC50 for collagen level",2.02 µM
same,IC50,"WI‐26 VA4 cells; WI26VA4, read-out: Collagen IC50 (best-fit value)",2.02 µM
same,activity at 0.01 µM,"WI‐26 VA4 cells; WI26VA4, read-out: Collagen, % of control (single replicates per experiment), 10 nM",101%
same,activity at 300 µM,"WI‐26 VA4 cells; WI26VA4, read-out: Collagen, % of control (single replicates per experiment), 300000 nM",3.81%
same,activity at 0.01 µM,"WI‐26 VA4 cells; WI26VA4, read-out: Collagen, % of control, average, 10 nM, average",101%
same,activity at 0.03 µM,"WI‐26 VA4 cells; WI26VA4, read-out: Collagen, % of control, average, 30 nM, average",103%
same,activity at 0.1 µM,"WI‐26 VA4 cells; WI26VA4, read-out: Collagen, % of control, average, 100 nM, average",105%
same,activity at 0.3 µM,"WI‐26 VA4 cells; WI26VA4, read-out: Collagen, % of control, average, 300 nM, average",96.4%
same,activity at 1 µM,"WI‐26 VA4 cells; WI26VA4, read-out: Collagen, % of control, average, 1000 nM, average",78.8%
same,activity at 3 µM,"WI‐26 VA4 cells; WI26VA4, read-out: Collagen, % of control, average, 3000 nM, average",37.7%
same,activity at 10 µM,"WI‐26 VA4 cells; WI26VA4, read-out: Collagen, % of control, average, 10000 nM, average",15%
same,activity at 30 µM,"WI‐26 VA4 cells; WI26VA4, read-out: Collagen, % of control, average, 30000 nM, average",5.52%
same,activity at 100 µM,"WI‐26 VA4 cells; WI26VA4, read-out: Collagen, % of control, average, 100000 nM, average",4.05%
same,activity at 300 µM,"WI‐26 VA4 cells; WI26VA4, read-out: Collagen, % of control, average, 300000 nM, average",4.51%
same,activity at 0.03 µM,"WI‐26 VA4 cells; WI26VA4, read-out: Efficacy, % of control, average, 30 nM",102%
same,activity at 0.1 µM,"WI‐26 VA4 cells; WI26VA4, read-out: Efficacy, % of control, average, 100 nM",99.4%
same,activity at 0.3 µM,"WI‐26 VA4 cells; WI26VA4, read-out: Efficacy, % of control, average, 300 nM",107%
same,activity at 1 µM,"WI‐26 VA4 cells; WI26VA4, read-out: Efficacy, % of control, average, 1000 nM",82.3%
same,activity at 3 µM,"WI‐26 VA4 cells; WI26VA4, read-out: Efficacy, % of control, average, 3000 nM",35.4%
same,activity at 10 µM,"WI‐26 VA4 cells; WI26VA4, read-out: Efficacy, % of control, average, 10000 nM",11.9%
same,activity at 30 µM,"WI‐26 VA4 cells; WI26VA4, read-out: Efficacy, % of control, average, 30000 nM",3.71%
same,activity at 100 µM,"WI‐26 VA4 cells; WI26VA4, read-out: Efficacy, % of control, average, 100000 nM",2.52%
same,activity at 0.03 µM,"WI‐26 VA4 cells; WI26VA4, read-out: Efficacy, % of control, single replicate, 30 nM",113%
same,activity at 0.1 µM,"WI‐26 VA4 cells; WI26VA4, read-out: Efficacy, % of control, single replicate, 100 nM",108%
same,activity at 0.3 µM,"WI‐26 VA4 cells; WI26VA4, read-out: Efficacy, % of control, single replicate, 300 nM",114%
same,activity at 3 µM,"WI‐26 VA4 cells; WI26VA4, read-out: Efficacy, % of control, single replicate, 3000 nM",39%
same,activity at 10 µM,"WI‐26 VA4 cells; WI26VA4, read-out: Efficacy, % of control, single replicate, 10000 nM",10.1%
same,activity at 30 µM,"WI‐26 VA4 cells; WI26VA4, read-out: Efficacy, % of control, single replicate, 30000 nM",3.03%
same,IC50,"WI‐26 VA4 cells; WI26VA4, read-out: IC50 for collagen level",2 µM
same,Collagen HillSlope (best-fit value),"WI‐26 VA4 cells; log(inhibitor) vs. response, variable slope (four parameters)",-1.329
same,Collagen LogIC50 (best-fit value),"WI‐26 VA4 cells; log(inhibitor) vs. response, variable slope (four parameters), concentration in nM",3.306
same,Relative (CC50)/(collagen IC50),"WI‐26 VA4 cells; relative to HF, Fig 5E",3.01
same,TNT-luciferase % of control,"[1]; 2000 nM, Experiment #1, replicates, 2 µM",107.63 % of control and 97.97 % of control and 101.55 % of control
same,TNT-luciferase % of control,"[1]; 2000 nM, Experiment #2, replicates, 2 µM",104.64 % of control and 94.62 % of control and 88.50 % of control
same,"TNT-luciferase % of control, average",[1]; 2000 nM,99.15 % of control
same,TNT-luciferase % of control,"[1]; 6000 nM, Experiment #1, replicates, 6 µM",101.91 % of control and 104.41 % of control and 119.43 % of control
same,TNT-luciferase % of control,"[1]; 6000 nM, Experiment #2, replicates, 6 µM",96.85 % of control and 102.97 % of control and 104.64 % of control
same,"TNT-luciferase % of control, average",[1]; 6000 nM,105.03 % of control
same,TNT-luciferase % of control,"[1]; 20000 nM, Experiment #1, replicates, 20 µM",72.94 % of control (2×) and 59.71 % of control
same,TNT-luciferase % of control,"[1]; 20000 nM, Experiment #2, replicates, 20 µM",84.60 % of control (2×) and 85.71 % of control
same,"TNT-luciferase % of control, average",[1]; 20000 nM,76.75 % of control
same,TNT-luciferase % of control,"[1]; 60000 nM, Experiment #1, replicates, 60 µM",38.97 % of control and 46.84 % of control and 41.48 % of control
same,TNT-luciferase % of control,"[1]; 60000 nM, Experiment #2, replicates, 60 µM",51.21 % of control and 53.71 % of control and 53.43 % of control
same,"TNT-luciferase % of control, average",[1]; 60000 nM,47.61 % of control
same,TNT-luciferase % of control,"[1]; 200000 nM, Experiment #1, replicates, 200 µM",1.16 % of control and 1.03 % of control and 1.24 % of control
same,TNT-luciferase % of control,"[1]; 200000 nM, Experiment #2, replicates, 200 µM",6.68 % of control and 5.56 % of control and 5.68 % of control
same,"TNT-luciferase % of control, average",[1]; 200000 nM,3.56 % of control
same,TNT-luciferase % of control,"[1]; 600000 nM, Experiment #1, replicates, 600 µM",0.00561 % of control and 0.00168 % of control and 0.00107 % of control
same,TNT-luciferase % of control,"[1]; 600000 nM, Experiment #2, replicates, 600 µM",0.24 % of control and 0.28 % of control and 0.27 % of control
